These results are taken from US8101774B2, “Ester derivatives and medicinal use thereof” (Japan Tobacco Inc., priority 2004, dated 2012).

This experiment deals with T1, Microsomal triglyceride transfer protein (MTP) from human small intestine microsome (Homo sapiens, UniProt P55157).
T1 construct: Human small intestine microsome was dialyzed against 10 mM phosphate buffer; tissue Tissue Transforming Technologies, Inc; host or cells: human small intestine microsome
Description: Inhibition test of interliposomal triglyceride (TG) transfer activity by MTP. In kind it is biochemical. Conditions: purified MTP from human small intestine microsome, 37° C., 1.5 hours. The method, then:
Microsomal triglyceride transfer protein (MTP) from human small intestine microsome (manufactured by Tissue Transforming Technologies, Inc.) was purified in such a way described below. Human small intestine microsome was dialyzed against 10 mM phosphate buffer (300 mL, pH 6.8) twice for about 2 hours and once for further not less than 12 hours, at about 4° C. After dialysis, the mixture was centrifuged at 4° C. and 15,000×g for 5 minutes and then the supernatant was recovered. The previously recovered supernatant was purified by column chromatography on diethylaminoethyl (DEAE) Sepharose using FPLC (Fast Performance Liquid Chromatography) system, and the purified MTP was used for the test as described below.
Small unilamellar-vesicle (SUV) liposome (hereinafter described as donor, containing 0.25% (mol/mol) triolein and 5% (mol/mol) cardiolipin) constituted by triolein labeled with ^14C and non-labeled SUV liposome (hereinafter described as acceptor, containing […] triolein) were prepared in such a way described below.
Firstly, in order to prepare the donor, there were volatilized under a stream of nitrogen gas a phosphatidylcholine solution containing phosphatidylcholine labeled with ^3H, a cardiolipin solution, and a triolein solution containing triolein labeled with ^14C (each solution had been already dissolved in an appropriate organic solvent), or in order to prepare the acceptor, there were volatilized under nitrogen flow a phosphatidylcholine solution containing phosphatidylcholine labeled with ^3H and a cardiolipin solution (each solution had been already dissolved in an appropriate organic solvent). An appropriate amount of a reaction buffer (15 mM Tris-HCl buffer containing 1 mM EDTA.Na2, 40 mM NaCl, and 0.5% (w/v) bovine serum albumin, pH 7.4) was added thereto to be emulsified. The emulsions were treated with ultrasonication under ice-cooling and centrifuged at 4° C. and 159,000×g for 2 hours. Each of the resulting supernatant was used for donor or acceptor.
Each radioactivity in the acceptor and the donor was measured by liquid scintillation counter, and a mixed solution of the acceptor and the donor was prepared with a reaction buffer so as to be a donor-derived radioactivity of 16,000 dpm/400 μL and a acceptor-derived radioactivity of 4,000 dpm/[…]. 400 μL of the mixed solution of the donor and the acceptor, 45 μL of the reaction buffer, 50 μL of MTP (20 μg/mL), and 5 μL of a sample dissolved in DMSO (dimethyl sulfoxide) or 5 μL of DMSO was mixed (total amount: 500 μL). The mixture was incubated at 37° C. for 1.5 hours. After completion of the incubation, 1.25 mL of a suspension of DEAE cellulose (66.7% (v/v)) in 15 mM Tris-HCl buffer (pH 7.4) containing 1 mM EDTA.Na2 was added to the above solution. The mixture was centrifuged to separate the donor (adsorbed on the DEAE cellulose to precipitate) and the acceptor (the supernatant). The radioactivity in the acceptor was measured by liquid scintillation counter. The value obtained by subtracting the radioactivity in a blank group from the radioactivity in the acceptor of a DMSO group was determined as MTP-mediated TG transfer activity, and it was compared with the value obtained by subtracting the radioactivity in the blank group from the radioactivity in a sample group. Here, the blank was prepared by adding 10 mM phosphate buffer (pH 6.8) containing 250 mM NaCl in place of MTP. Inhibition rate (%) was calculated from values obtained according to the following equation. Inhibition rate(%)=(1 minus((radioactivity of sample group minus radioactivity of blank group)/(radioactivity of DMSO group minus radioactivity of blank group)))×100.
50% Inhibition rate (IC50) was determined on the basis of the above equation.

T1 sequence (P55157 19-894): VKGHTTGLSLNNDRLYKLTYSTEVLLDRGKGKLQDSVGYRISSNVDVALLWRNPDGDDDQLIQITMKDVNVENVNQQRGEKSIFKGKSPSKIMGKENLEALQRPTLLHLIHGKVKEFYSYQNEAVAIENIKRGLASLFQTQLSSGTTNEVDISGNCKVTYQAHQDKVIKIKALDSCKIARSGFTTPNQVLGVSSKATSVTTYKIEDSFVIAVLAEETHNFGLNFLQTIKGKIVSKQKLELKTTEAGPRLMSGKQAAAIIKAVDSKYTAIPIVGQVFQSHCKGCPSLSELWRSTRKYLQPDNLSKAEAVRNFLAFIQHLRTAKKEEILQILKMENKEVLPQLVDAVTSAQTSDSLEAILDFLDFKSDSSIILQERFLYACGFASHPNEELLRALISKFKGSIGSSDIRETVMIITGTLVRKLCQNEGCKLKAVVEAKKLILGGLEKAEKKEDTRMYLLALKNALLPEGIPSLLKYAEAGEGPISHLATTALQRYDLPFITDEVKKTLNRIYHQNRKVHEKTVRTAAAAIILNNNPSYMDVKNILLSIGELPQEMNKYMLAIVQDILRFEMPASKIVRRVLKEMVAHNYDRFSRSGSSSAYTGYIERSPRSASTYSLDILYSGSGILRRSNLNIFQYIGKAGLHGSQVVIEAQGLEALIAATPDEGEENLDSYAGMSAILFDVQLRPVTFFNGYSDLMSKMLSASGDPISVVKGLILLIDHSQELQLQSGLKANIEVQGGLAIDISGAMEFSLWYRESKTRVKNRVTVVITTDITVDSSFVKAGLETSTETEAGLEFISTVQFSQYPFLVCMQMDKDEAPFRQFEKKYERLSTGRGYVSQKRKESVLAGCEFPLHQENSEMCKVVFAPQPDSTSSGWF
T1 sequence (P07237 18-508 partner): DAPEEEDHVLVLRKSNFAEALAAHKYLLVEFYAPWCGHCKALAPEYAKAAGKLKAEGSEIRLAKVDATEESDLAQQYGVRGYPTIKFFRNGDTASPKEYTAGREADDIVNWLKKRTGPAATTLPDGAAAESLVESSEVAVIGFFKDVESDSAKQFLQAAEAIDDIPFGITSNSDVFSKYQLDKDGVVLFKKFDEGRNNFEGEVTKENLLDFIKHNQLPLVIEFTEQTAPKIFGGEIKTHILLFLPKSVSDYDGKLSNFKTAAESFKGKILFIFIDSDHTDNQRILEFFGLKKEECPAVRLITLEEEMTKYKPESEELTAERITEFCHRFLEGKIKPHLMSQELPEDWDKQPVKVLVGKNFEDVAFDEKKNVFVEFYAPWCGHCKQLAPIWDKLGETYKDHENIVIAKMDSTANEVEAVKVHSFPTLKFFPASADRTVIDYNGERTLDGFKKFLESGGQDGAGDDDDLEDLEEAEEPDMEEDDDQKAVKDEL

For the compound `COC(=O)c1ccc(OC(=O)CCCc2ccc(NC(=O)c3ccc(C)cc3-c3ccc(C(F)(F)F)cc3)c(C(=O)N(C)C)c2)cc1` [Compound 1-9, 4-(4-{3-dimethylcarbamoyl-4-[(5-methyl-4′-trifluoromethylbiphenyl-2-carbonyl)amino]phenyl}butyryloxy) benzoic acid methyl ester], the concentration for half-maximal inhibition (IC50) is less than 10 nM.
`COC(=O)c1ccc(OC(=O)CCCc2ccc(NC(=O)c3ccccc3-c3ccc(C(F)(F)F)cc3)c(C(=O)N3CCCC3)c2)cc1` [Compound 1-15, 4-(4-{3-(pyrrolidine-1-carbonyl)-4-[(4′-trifluoromethylbiphenyl-2-carbonyl)amino]phenyl}butyryloxy)benzoic acid methyl ester] registered a 50% inhibitory concentration (IC50) of less than 10 nM.
The compound `COC(=O)c1cc(Cl)c(OC(=O)CCCc2ccc(NC(=O)c3ccc(C)nc3-c3ccc(C(F)(F)F)cc3)c(C(=O)N(C)C)c2)c(OC)c1` [Compound 1-36, 3-chloro-4-[4-(3-dimethylcarbamoyl-4-{[6-methyl-2-(4-trifluoromethylphenyl)pyridine-3-carbonyl]amino}phenyl)butyryloxy]-5-methoxybenzoic acid methyl ester] gave a half-inhibitory concentration (IC50) of less than 10 nM.
For `CCOC(=O)c1cc(C)c(OC(=O)CCCc2ccc(NC(=O)c3ccc(C)nc3-c3ccc(C(F)(F)F)cc3)c(C(=O)N(C)C)c2)c(Cl)c1` [Compound 1-112, 3-chloro-4-[4-(3-dimethylcarbamoyl-4-{[6-methyl-2-(4-trifluoromethylphenyl)pyridine-3-carbonyl]amino}phenyl)butyryloxy]-5-methylbenzoic acid ethyl ester] the value was less than 10 nM; for `CN(C)C(=O)c1cc(CCCC(=O)Oc2ccc(C(=O)OCc3cccs3)cc2)ccc1NC(=O)c1ccccc1-c1ccc(C(F)(F)F)cc1` [Compound 1-98, 4-[4-(3-dimethylcarbamoyl-4-{(4′-trifluoromethylbiphenyl-2-carbonyl)amino}phenyl)butyryloxy]benzoic acid thiophen-2-ylmethyl ester], less than 10 nM.
Compound `COC(=O)c1ccc(-c2nc(C)ccc2C(=O)Nc2ccc(CCCC(=O)Oc3c(Cl)cc(C(=O)OC)cc3OC)cc2C(=O)N(C)C)cc1` [Compound 4-4, 3-chloro-4-[4-(3-dimethylcarbamoyl-4-{[2-(4-methoxycarbonylphenyl)-6-methylpyridine-3-carbonyl]amino}phenyl)butyryloxy]-5-methoxybenzoic acid methyl ester] returned an IC50 of less than 10 nM.
In turn, `COC(=O)c1ccc(OC(=O)CCCc2ccc(NC(=O)c3ccc(C)nc3-c3ccc(C(F)(F)F)cc3)c(C(=O)N(C)C)c2)cc1` [Compound 1-13, 4-[4-(3-dimethylcarbamoyl-4-{[6-methyl-2-(4-trifluoromethylphenyl)pyridine-3-carbonyl]amino}phenyl)butyryloxy)benzoic acid methyl ester] displayed an IC50 of less than 10 nM.
The compound `COC(=O)COC(=O)c1ccc(OC(=O)CCCc2ccc(NC(=O)c3ccccc3-c3ccc(C(F)(F)F)cc3)c(C(=O)N(C)C)c2)cc1` [Compound 1-86, 4-[4-(3-dimethylcarbamoyl-4-{(4′-trifluoromethylbiphenyl-2-carbonyl)amino}phenyl)butyryloxy]benzoic acid methoxycarbonylmethyl ester] registered a half-maximal inhibitory concentration (IC50) of less than 10 nM.
To `CCOC(=O)c1ccc(OC(=O)CCCc2ccc(NC(=O)c3ccccc3-c3ccc(C(F)(F)F)cc3)c(C(=O)N(C)C)c2)cc1` [Compound 1-6, 4-(4-{3-dimethylcarbamoyl-4-[(4′-trifluoromethylbiphenyl-2-carbonyl)amino]phenyl}butyryloxy)benzoic acid ethyl ester] belongs less than 10 nM; to `COC(=O)c1ccc(OC(=O)CCCc2ccc(NC(=O)c3ccncc3-c3ccc(C(F)(F)F)cc3)c(C(=O)N(C)C)c2)cc1` [Compound 1-30, 4-[4-(3-dimethylcarbamoyl-4-{[3-(4-trifluoromethylphenyl)pyridine-4-carbonyl]amino}phenyl)butyryloxy]benzoic acid methyl ester], 10 to 100 nM; to `CN(C)C(=O)c1cc(CCCC(=O)Oc2ccc(C(=O)OC3CCc4ccccc43)cc2)ccc1NC(=O)c1ccccc1-c1ccc(C(F)(F)F)cc1` (stereo not shown) [Compound 1-107, 4-[4-(3-dimethylcarbamoyl-4-{(4′-trifluoromethylbiphenyl-2-carbonyl)amino}phenyl)butyryloxy]benzoic acid indan-1-yl ester], less than 10 nM.
The compound `COC(=O)c1cc(C)c(OC(=O)CCCc2ccc(NC(=O)c3ccc(C)nc3-c3ccc(C(F)(F)F)cc3)c(C(=O)N(C)C)c2)c(C(=O)OC)c1` [Compound 1-110, 4-[4-(3-dimethylcarbamoyl-4-{[6-methyl-2-(4-trifluoromethylphenyl)pyridine-3-carbonyl]amino}phenyl)butyryloxy]-5-methylisophthalic acid dimethyl ester] returned an IC50 of less than 10 nM.
Turning to `CCOc1cc(C(=O)OC)cc(OC)c1OC(=O)CCCc1ccc(NC(=O)c2ccc(C)nc2-c2ccc(C(F)(F)F)cc2)c(C(=O)N(C)C)c1` [Compound 1-49, 4-[4-(3-dimethylcarbamoyl-4-{[6-methyl-2-(4-trifluoromethylphenyl)pyridine-3-carbonyl]amino}phenyl)butyryloxy]-3-ethoxy-5-methoxybenzoic acid methyl ester], the concentration for half-maximal inhibition (IC50) was less than 10 nM.
As for `CCc1cc(C(=O)OC)cc(F)c1OC(=O)CCCc1ccc(NC(=O)c2ccc(C)nc2-c2ccc(C(F)(F)F)cc2)c(C(=O)N(C)C)c1` [Compound 1-42, 4-[4-(3-dimethylcarbamoyl-4-{[6-methyl-2-(4-trifluoromethylphenyl)pyridine-3-carbonyl]amino}phenyl)butyryloxy]-3-ethyl-5-fluorobenzoic acid methyl ester], the half-maximal inhibitory concentration (IC50) was less than 10 nM.
The compound `CN(C)C(=O)Cn1nnc(-c2ccc(OC(=O)CCCc3ccc(NC(=O)c4ccccc4-c4ccc(C(F)(F)F)cc4)c(C(=O)N(C)C)c3)cc2)n1` [Compound 1-105, 4-(3-dimethylcarbamoyl-4-{(4′-trifluoromethylbiphenyl-2-carbonyl)amino}phenyl)butyric acid 4-(2-dimethylcarbamoylmethyl-2H-tetrazol-5-yl)phenyl ester] came in with a 50% inhibitory concentration (IC50) of less than 10 nM.
Compound `Cc1ccc(C(=O)Nc2ccc(CCCC(=O)Oc3ccc(C(=O)OCc4cccnc4)cc3)cc2C(=O)N(C)C)c(-c2ccc(C(F)(F)F)cc2)n1` [Compound 1-94, 4-[4-(3-dimethylcarbamoyl-4-{[6-methyl-2-(4-trifluoromethylphenyl)pyridine-3-carbonyl]amino}phenyl)butyryloxy]benzoic acid pyridin-3-ylmethyl ester] came in with a half-inhibitory concentration (IC50) of less than 10 nM.
In turn, `COc1cc(C(=O)OCC(=O)N(C)C)cc(Cl)c1OC(=O)CCCc1ccc(NC(=O)c2ccc(C)nc2-c2ccc(C(F)(F)F)cc2)c(C(=O)N(C)C)c1` [Compound 1-113, 3-chloro-4-[4-(3-dimethylcarbamoyl-4-{[6-methyl-2-(4-trifluoromethylphenyl)pyridine-3-carbonyl]amino}phenyl)butyryloxy]-5-methoxybenzoic acid dimethylcarbamoylmethyl ester] returned a concentration for half-maximal inhibition (IC50) of less than 10 nM.
In turn, `CN(C)C(=O)c1cc(CC(=O)Oc2ccc(F)cc2)ccc1NC(=O)c1ccccc1-c1ccc(C(F)(F)F)cc1` [Compound 1-4, {3-dimethylcarbamoyl-4-[(4′-trifluoromethylbiphenyl-2-carbonyl)amino]phenyl}acetic acid 4-fluorophenyl ester] returned a 50% inhibitory concentration (IC50) of 100 to 1000 nM.
In the case of `COC(=O)c1ccc(OC(=O)CCCc2ccc(NC(=O)c3cccnc3-c3ccc(C(F)(F)F)cc3)c(C(=O)N(C)C)c2)cc1` [Compound 1-28, 4-[4-(3-dimethylcarbamoyl-4-{[2-(4-trifluoromethylphenyl)pyridine-3-carbonyl]amino}phenyl)butyryloxy]benzoic acid methyl ester], the half-maximal inhibitory concentration (IC50) is less than 10 nM.
